Measured values from article PMC6792352, “Limited Chemical Structural Diversity Found to Modulate Thyroid Hormone Receptor in the Tox21 Chemical Library” (Environmental Health Perspectives, 2019).
Like-named read-outs stand apart in the source and are kept apart here.

Tests used:
[1] = tested on: thyroid hormone receptor (endogenous TRα and TRβ); experiment: cells; parameters: species or system GH3-TRE-Luc (rat pituitary); GH3-TRE-Luc luciferase reporter, antagonist mode against 1 nM T3, loss of signal, qHTS; details: 24 h; Tox21_110001=Tox21_113375; antagonist mode, 1 nM T3; read-out: AC50 (uM) modified / 1000
[2] = tested on: thyroid hormone receptor (endogenous TRα and TRβ); experiment: GH3-TRE-Antag primary qHTS, luciferase reporter, antagonist mode with 1 nM T3 (TOX21_TR_LUC_GH3_Antagonist, aeid 804); assay type: cell-based, rat; details: antagonist mode, 1 nM T3; read-out: GH3-TRE-Antag AC50
[3] = tested on: thyroid hormone receptor (endogenous TRα and TRβ); experiment: GH3-TRE-Ag primary qHTS, luciferase reporter, agonist mode (TOX21_TR_LUC_GH3_Agonist, aeid 803); assay type: cell-based, rat; details: for AC50: read-out: GH3-TRE-Ag AC50; for GH3-TRE-Ag AC50 hitc: hit call from tcpl
[4] = Global cytotoxicity: eighteen Tox21 cell viability assays; assay type: cell-based; details: read-out: Global cytotoxicity AC50 median
[5] = tested on: Tox21 cell viability assays (different cell types); experiment: as above; assay type: cell-based
[6] = GH3-TRE-Via cell viability, CellTiter-Fluor (TOX21_TR_LUC_GH3_Antagonist_viability, aeid 805); details: rat
[7] = tested on: thyroid hormone receptor (endogenous TRα and TRβ); experiment: cells; parameters: species or system GH3-TRE-Luc (rat pituitary); GH3-TRE-Luc luciferase reporter transactivation, agonist mode, qHTS; RXR ligands can also activate indirectly; details: 24 h, read-out: TR_LUC_GH3_Agonist_AC50 (uM)
[8] = target: T1, TRα ligand-binding domain (Homo sapiens, UniProt P10827); experiment: TRa-coa LanthaScreen TR-FRET coactivator (SRC-2 peptide) recruitment, agonist (TOX21_TRA_COA_Agonist_Followup_ratio, aeid 2230); assay type: biochemical; details: for TRa-coa hitc: hit call from tcpl; for Emax: read-out: EMax (% of Control) tra-coa-agonist-followup-1
T1 construct: the receptor LBDs expressed as glutathione S-transferase (GST) fusion proteins; purchased

[9] = tested on: thyroid hormone receptor (TR); experiment: Classification of TR actives across characterization assays (TR-Ag / RXR-Ag; TR model binary); parameters: key to Categorization Code: FP, false positive; details: for Categorization Code: TR agonist characterization
Summary of the method: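 GH3-TRE qHTS agonist, antagonist and viability modes over 8,305 compounds; 84 candidates rescreened in GH3-TRE-Ag, TRβ- and RXRα-UAS-bla HEK 293T one-hybrid assays, HEK293T viability, and TRα/TRβ coactivator recruitment. Actives classified binary after removing pharmaceuticals.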

[10] = target: T2, human TRβ ligand-binding domain (Homo sapiens, UniProt P10828); experiment: TRb-coa LanthaScreen TR-FRET coactivator (SRC-2 peptide) recruitment, agonist (TOX21_TRB_COA_Agonist_Followup_ratio, aeid 2244); assay type: biochemical; parameters: host or cells: GeneBLAzer UAS-bla HEK 293T; details: for TRb-coa hitc: hit call from tcpl; for Emax: read-out: EMax (% of Control) trb-coa-agonist-followup-1
T2 sequence (P10828 217-461 limits assumed): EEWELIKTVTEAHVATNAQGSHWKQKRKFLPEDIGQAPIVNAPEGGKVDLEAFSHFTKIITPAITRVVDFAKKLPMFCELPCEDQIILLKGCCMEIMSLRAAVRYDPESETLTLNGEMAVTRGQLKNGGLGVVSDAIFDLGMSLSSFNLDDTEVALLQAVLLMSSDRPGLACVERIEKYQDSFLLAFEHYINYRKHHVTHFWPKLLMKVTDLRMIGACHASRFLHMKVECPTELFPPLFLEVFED

[11] = target: T3, human RXRα (Homo sapiens, UniProt P19793); experiment: RXRa-bla-Ag mammalian one-hybrid beta-lactamase assay (TOX21_TR_RXR_BLA_Agonist_Followup_ratio, aeid 2253); assay type: cell-based; details: for tr-followup-rxr-bla-agonist-1 hitc: hit call from tcpl; for Emax: read-out: EMax (% of Control) tr-followup-rxr-bla-agonist-1; for AC50: read-out: tr-followup-rxr-bla-agonist-1 AC50
T3 construct: host or cells: GeneBLAzer UAS-bla HEK 293T
T3 sequence (P19793 227-458 limits assumed): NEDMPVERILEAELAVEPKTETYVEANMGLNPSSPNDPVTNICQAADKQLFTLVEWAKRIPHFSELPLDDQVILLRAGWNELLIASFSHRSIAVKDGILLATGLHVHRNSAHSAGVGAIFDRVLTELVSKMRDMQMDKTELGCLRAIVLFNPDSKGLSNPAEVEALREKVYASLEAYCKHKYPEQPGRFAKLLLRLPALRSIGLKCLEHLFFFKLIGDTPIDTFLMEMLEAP

[12] = tested on: thyroid hormone receptor (endogenous TRα and TRβ); experiment: GH3-TRE-Ag-Followup confirmation (TOX21_TR_LUC_GH3_Agonist_Followup, aeid 2226); assay type: cell-based, rat; details: for GH3-TRE-Ag-Followup hitc: hit call from tcpl; for AC50: read-out: GH3-TRE-Ag-Followup AC50
[13] = target: T2, human TRβ ligand-binding domain; experiment: TRb-bla agonist mammalian one-hybrid beta-lactamase assay (TOX21_TRB_BLA_Agonist_Followup_ratio, aeid 2236); assay type: cell-based; parameters: host or cells: GeneBLAzer UAS-bla HEK 293T; details: for AC50 / TRb-bla hitc: agonist; for AC50: read-out: TRb-bla AC50; for TRb-bla hitc: hit call from tcpl; for Emax: read-out: EMax (% of Control) trb-bla-agonist-followup-1
[14] = tested on: GH3-TRE-Luc cell line; experiment: GH3-TRE-Via cell viability, CellTiter-Fluor (TOX21_TR_LUC_GH3_Antagonist_viability, aeid 805); details: for AC50: Rattus norvegicus, read-out: TR_LUC_GH3_Antagonist_viability AC50 (uM)
[15] = in vitro; parameters: species or system GH3-TRE-Luc (rat pituitary); CellTiter-Fluor viability run in parallel with antagonist mode (1 nM T3), loss of viability; details: rat, gh3-tre-luc cells, AC50 (uM) modified / 1000, Tox21_110001=Tox21_202322, viability, 1 nM T3 present
[16] = tested on: GH3-TRE-Luc cell line; details: rat, 24 h
[17] = agonist, read-out: TRa-coa AC50
[18] = agonist, read-out: TRb-coa AC50
[19] = median over Tox21 viability assays

T1 sequence (P10827 163-410 isoform P10827-2 limits assumed, other chains not shown): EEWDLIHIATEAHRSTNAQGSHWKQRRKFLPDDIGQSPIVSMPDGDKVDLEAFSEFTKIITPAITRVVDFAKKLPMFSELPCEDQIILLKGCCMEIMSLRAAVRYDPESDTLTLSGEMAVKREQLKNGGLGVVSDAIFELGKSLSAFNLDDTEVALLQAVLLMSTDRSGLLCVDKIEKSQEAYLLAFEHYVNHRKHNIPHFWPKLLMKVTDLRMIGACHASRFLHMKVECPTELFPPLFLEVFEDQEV

| SMILES | AC50 at 24 h [6] [µM] | AC50 [7] [µM] | AC50 [8, 17] [µM] | TRa-coa hitc ([8]; agonist) | Emax [8] [%] | Categorization Code [9] | EMax (% of Control) gh3-tre-agonist [3] | GH3-TRE-Ag AC50 hitc [3] | AC50 [10, 18] [µM] | TRb-coa hitc ([10]; agonist) | Emax [10] [%] | tr-followup-rxr-bla-agonist-1 hitc [11] | Emax [11] [%] | AC50 [11] [µM] | GLOBAL CYTOTOXICITY cytotox.median [5, 19] | EMax (% of Control) gh3-tre-agonist-followup-1_agonist [12] | GH3-TRE-Ag-Followup hitc [12] | AC50 [12] [µM] | TRb-bla hitc [13] | Emax [13] [%] | also measured |
| --- | --- | --- | --- | --- | --- | --- | --- | --- | --- | --- | --- | --- | --- | --- | --- | --- | --- | --- | --- | --- | --- |
| C[C@]12CC[C@@H]3c4ccc(OC(=O)N(CCCl)CCCl)cc4CC[C@H]3[C@@H]1CC[C@@H]2OP(=O)(O)O [Estramustine phosphate sodium] | – | – | – | – | – | – | – | – | – | – | – | – | – | – | – | – | – | – | – | – | AC50 [1]: > 50 µM |
| Nc1nc(F)nc2c1ncn2[C@@H]1O[C@H](CO)[C@@H](O)[C@@H]1O [Fludarabine, reference compound] | 22.3 | – | – | – | – | – | – | – | – | – | – | – | – | – | – | – | – | – | – | – | AC50 [2]: 16.3 µM; AC50 ([3]; antagonist candidates, inactive samples arbitrarily set to AC50=1,000 μM): > 92 µM; AC50 ([4]; median over 18 Tox21 cell viability assays, inactive set to 1,000): > 92 µM; Active in global cytotoxicity assays (%) [5]: 1.7% |
| CNC(=O)ON=C(CSC)C(C)(C)C [Thiofanox] | – | 21 | > 92 | 0 | -0.2 | FP | 22.7 % of Control | 1 | > 92 | 0 | -0.165 | 0 | 3 | > 92 | >92 | 9.5 % of Control | 0 | > 92 | 0 | 31.7 | GLOBAL CYTOTOXICITY cytotox.number_Active ([5]; # active of 18 total Tox21 viability assays): 0; AC50 [13]: > 92 µM; AC50 [14]: > 92 µM; TR_LUC_GH3_Antagonist_viability hitc ([14]; hit call from tcpl): 0 |
| [CH3][Sn]([Cl])([Cl])[Cl] [Trichloromethylstannane] | – | – | – | – | – | – | – | – | – | – | – | – | – | – | – | – | – | – | – | – | CC50 at 24 h [15]: > 90 µM |
| CC1=C(/C=C/C(C)=C/C=C/C(C)=C/C(=O)O)C(C)(C)CCC1 [all trans-Retinoic acid, reference compound] | 66.7 | – | – | 0 | -0.347 | RXR-Ag | 29.3 % of Control | 1 | – | 0 | 0 | – | – | – | >92 | 97.2 % of Control | 1 | – | 1 | 31.1 | AC50 ([8]; cell-free coactivator recruitment, read-out: TRa-coa-Ag AC50): > 92 µM; Classification ([9]; TR-Ag = TR agonist, RXR-Ag = RXR agonist): RXR-Ag; AC50 ([3]; primary qHTS, agonist mode, 24 h, top concentration 92 μM): 0.234 µM; AC50 ([10]; cell-free coactivator recruitment, read-out: TRb-coa-Ag AC50): > 92 µM; AC50 ([4]; median over 18 Tox21 cell viability assays (Judson et al. 2016, invitrodb_v2)): > 92 µM; GLOBAL CYTOTOXICITY cytotox.number_Active [5]: 0; AC50 ([12]; confirmation, agonist mode): 1.16 µM; TR_LUC_GH3_Antagonist_viability hitc [16]: 1 |
| c1csc(-c2ccc(-c3cccs3)s2)c1 [alpha-Terthiophene] | – | 80.3 | > 92 | 0 | -0.547 | FP | 20.8 % of Control | 1 | > 92 | 0 | -0.0945 | 1 | 65.3 | 0.728 | – | 7.5 % of Control | 0 | > 92 | 0 | 25.8 | GLOBAL CYTOTOXICITY cytotox.median [5]: >92; GLOBAL CYTOTOXICITY cytotox.number_Active [5]: 0; AC50 [13]: > 92 µM; TR_LUC_GH3_Antagonist_viability hitc [16]: 0; AC50 [14]: > 92 µM |
